# Assay results from patent US7888319B2, “Compositions and methods for promoting wound healing and tissue regeneration” (MUSC Foundation for Research Development, priority 2004, dated 2011).
# Ends that are not written are not given here.
# Tests used:
# [1] = system: 4 mm long incisional skin injury; experiment: Incisional skin injury in neonatal mouse; format: in vivo
# Procedure: Neonatal mouse pups were desensitized using hypothermia. A 4 mm long incisional skin injury was made using a scalpel through the entire thickness of the skin (down to the level of the underlying muscle) in the dorsal mid line between the shoulder blades. 30 μl of a solution of 20% pluronic (F-127) gel containing either no (control) or dissolved ACT 1 peptide (SEQ ID NO: 2) at a concentration of 60 μM was then applied to the incisional injuries. Control or ACT peptide containing gel was applied subsequently 24 hours after the initial application. No further application of control and ACT peptide containing gel was made after the second application. […] These differences in inflammation, swelling and healing between the control and ACT peptide and control treated injury persisted at the 72 (c, d) and 96 (e, f) hour time points. […] Note that images of the same injury on the same animal are shown at the different time points during the healing time course. Neonatal mouse pups were desensitized using hypothermia. A 4 mm long incisional skin injury was made using a scalpel through the entire thickness of the skin (down to the level of the underlying muscle) in the dorsal mid line between the shoulder blades. 30 μl of a solution of 20% pluronic (F-127) gel containing either no (control) or dissolved ACT 1 peptide (SEQ ID NO:2) at a concentration of 60 μM was then applied to the incisional injuries. Pluronic gel has mild surfactant properties that may aid in the uniform dispersion of the ACT peptide in micelles. More importantly, 20% pluronic gel stays liquid at temperatures below 15° C., but polymerizes at body temperature (37° C.). This property of pluronic gel probably aided in the controlled release of peptide into the tissue at the site of incisional injury, protecting the peptide from break-down in the protease-rich environment of the wound and also enabling active concentrations of the peptide to maintained over prolonged periods. Control or ACT peptide containing gel was applied subsequently 24 hours after the initial application. […]
# [2] = system: Cx43 gap junction formation; experiment: Cx43 gap junction formation in cultured neonatal myocytes; format: cell-based, rat; conditions: 30 μM peptide, 5 days in culture, relative to non-active control peptide and PBS
# Procedure: Myocytes from neonatal rat hearts were grown until forming a near-confluent monolayer on a tissue culture dish according to standard protocols. The cultures were subsequently allowed to culture for a further 5 days in culture medium comprising (a) 30 μM ACT 1 peptide (SEQ ID NO:2), (b) 30 μM non-active control peptide (SEQ ID NO:55), or (c) phosphate buffered saline (PBS) containing no ACT peptide or control. Culture media with added peptides or vehicle control was changed every 24 hours during the experiment. […] This increase in Cx43 gap junction formation in response to ACT peptide is shared by a number of cell types expressing Cx43.
# Myocytes from neonatal rat hearts were grown until forming a near-confluent monolayer on a tissue culture dish according to standard protocols. The cultures were subsequently allowed to culture for a further 5 days culture medium comprising 30 μM ACT 1 peptide (SEQ ID NO:2), 30 μM non-active control peptide (SEQ ID NO:55), or phosphate buffered saline (PBS) containing no ACT peptide or control peptide. The non-active control peptide comprises a polypeptide with a carboxy terminus in which the ACT peptide sequence has been reversed. […]
sequence,measurement,setting,value
"RPRPDDLEI (not fully specified (N-terminus)) [ACT 1, carboxy-terminal 9 amino acids of human Cx43; amino terminus biotinylated in tests]","appearance of injury (closure, inflammation, swelling, healing)","[1]; 60 μM in 20% pluronic (F-127) gel, 30 μl, applied at 0 and 24 hours, by 48 hours, vs gel without peptide","significantly more closed, less inflamed, less swollen"
same,"differences in inflammation, swelling and healing versus control","[1]; 60 μM in 20% pluronic gel, 72 and 96 hour time points",persisted
same,scar appearance of wound,"[1]; 60 μM in 20% pluronic gel, at 7 days",smoother and less scarred appearance
same,extent of Cx43 gap junction formation between myocytes,[2],greatly increased
